The values below come from ChEMBL document CHEMBL5226325, “Optimization of a Screening Hit toward M2912, an Oral Tankyrase Inhibitor with Antitumor Activity in Colorectal Cancer Models” (J Med Chem, 2021).

Series [1] is described as follows: Unbound fraction in rat plasma. In kind it is ADME, cell-free.
Series [2] can be described thus: Oral bioavailability in mouse. In kind it is ADME, organism-based. Conditions: in vivo.

As for `Cc1ccc2c(=O)[nH]c(-c3ccc(C(C)(C)O)cc3)cn12`, in series [1], the fraction unbound (commonly the share of the substance not bound to proteins or other matrix) came to 0.13. Further, the bioavailability (in general, the share of a dose that reaches the circulation, judged against a reference dose that is usually intravenous) in series [2] is 77%.
